Data as given in the supplement of paper PMC4932681.

How the values were obtained:
MCF-7 [1] = assay: relative IC50 (midpoint of fitted logistic curve, plateau may be below 50% inhibition; CellTiter-Glo viability); higher = less potent; details: 4-OH-tamoxifen in medium 0 µM; 72 h
Description: (§1)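 FIMM FO2B library drugs were plated at 5 concentrations spanning a 10,000-fold range in 384-well plates. Cells were incubated for 72 h at 37 °C and viability was read by CellTiter-Glo, normalised to DMSO (0% inhibition) and 100 µM benzethonium chloride (100% inhibition). IC50 values come from logistic dose-response fits (Breeze pipeline). Tamoxifen-resistant lines and the 'in 1µM tamoxifen' parental arms were tested in medium with 1 µM 4-OH-tamoxifen.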

BT-474 Tam2 [2] = assay: as above; details: 4-OH-tamoxifen in medium 1 µM; 72 h
Description: as §1

T-47D [3] = assay: as above; details: 4-OH-tamoxifen in medium 1 µM; 72 h
Description: as §1

ZR-75-1 [4] = assay: as above; details: 4-OH-tamoxifen in medium 0 µM; 72 h
Description: as §1

BT-474 [5] = assay: as above; details: 4-OH-tamoxifen in medium 1 µM; 72 h
Description: as §1

ZR-75-1 Tam2 [6] = assay: drug sensitivity score (DSS) (DSS (dimensionless)); higher = more sensitive; extreme values may be limits of the assay; details: 4-OH-tamoxifen in medium 1 µM; 72 h
Description: (§2)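 FIMM FO2B library drugs were tested at 5 concentrations (10,000-fold range) for 72 h, with CellTiter-Glo viability normalised to DMSO and benzethonium chloride controls. The Drug Sensitivity Score (DSS) is computed from the fitted logistic dose-response curve (area-based; 0 = inactive). Resistant lines and the 'in 1µM tamoxifen' arms were tested in 1 µM 4-OH-tamoxifen.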

MCF-7 [7] = assay: as above; details: 72 h
Description: as §2

BT-474 Tam2 [8] = assay: as above; details: 4-OH-tamoxifen in medium 1 µM; 72 h
Description: as §2

T-47D [9] = assay: as above; details: 72 h
Description: as §2

T-47D Tam1 [10] = assay: as above; details: 4-OH-tamoxifen in medium 1 µM; 72 h
Description: as §2

ZR-75-1 [11] = assay: as above; details: 72 h
Description: as §2

BT-474 Tam1 [12] = assay: as above; details: 4-OH-tamoxifen in medium 1 µM; 72 h
Description: as §2

T-47D Tam2 [13] = assay: as above; details: 4-OH-tamoxifen in medium 1 µM; 72 h
Description: as §2

ZR-75-1 Tam1 [14] = assay: as above; details: 4-OH-tamoxifen in medium 1 µM; 72 h
Description: as §2

MCF-7 Tam1 [15] = assay: as above; details: 4-OH-tamoxifen in medium 1 µM; 72 h
Description: as §2

BT-474 [16] = assay: as above; details: 72 h
Description: as §2

ZR-75-1 Tam2 [17] = assay: viability inhibition at highest dose (% inhibition); higher = more growth inhibition; details: 4-OH-tamoxifen in medium 1 µM; 72 h
How it was run: (§3)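 Drug sensitivity score, relative IC50 as the curve midpoint, and top-dose inhibition were derived from logistic dose–response fits in the Breeze pipeline. These fits used CellTiter-Glo viability, read on a PHERAstar and normalised to vehicle-only and positive controls. Breast cancer cell lines and resistant derivatives had been incubated for 72 h at 37 °C in 384-well plates holding library drugs at five concentrations spanning a 10 000-fold range. Resistant lines were grown in medium with 1 μM of the selecting drug.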

MCF-7 [18] = assay: as above; details: 72 h
How it was run: as §3

BT-474 Tam2 [19] = assay: as above; details: 4-OH-tamoxifen in medium 1 µM; 72 h
How it was run: as §3

T-47D [20] = assay: as above; details: 72 h
How it was run: as §3

T-47D Tam1 [21] = assay: as above; details: 4-OH-tamoxifen in medium 1 µM; 72 h
How it was run: as §3

ZR-75-1 [22] = assay: as above; details: 72 h
How it was run: as §3

BT-474 Tam1 [23] = assay: as above; details: 4-OH-tamoxifen in medium 1 µM; 72 h
How it was run: as §3

T-47D Tam2 [24] = assay: as above; details: 4-OH-tamoxifen in medium 1 µM; 72 h
How it was run: as §3

ZR-75-1 Tam1 [25] = assay: as above; details: 4-OH-tamoxifen in medium 1 µM; 72 h
How it was run: as §3

MCF-7 Tam1 [26] = assay: as above; details: 4-OH-tamoxifen in medium 1 µM; 72 h
How it was run: as §3

BT-474 [27] = assay: as above; details: 72 h
How it was run: as §3

Compound	relative IC50 (MCF-7 [1]) [µM]	relative IC50 (BT-474 Tam2 [2]) [µM]	relative IC50 (T-47D [3]) [µM]	relative IC50 (ZR-75-1 [4]) [µM]	relative IC50 (BT-474 [5]) [µM]	drug sensitivity score (ZR-75-1 Tam2 [6])	drug sensitivity score (MCF-7 [7]; 4-OH-tamoxifen in medium 0 µM)	drug sensitivity score (MCF-7 [7]; 4-OH-tamoxifen in medium 1 µM)	drug sensitivity score (BT-474 Tam2 [8])	drug sensitivity score (T-47D [9]; 4-OH-tamoxifen in medium 0 µM)	drug sensitivity score (T-47D [9]; 4-OH-tamoxifen in medium 1 µM)	drug sensitivity score (T-47D Tam1 [10])	drug sensitivity score (ZR-75-1 [11]; 4-OH-tamoxifen in medium 0 µM)	drug sensitivity score (ZR-75-1 [11]; 4-OH-tamoxifen in medium 1 µM)	drug sensitivity score (BT-474 Tam1 [12])	drug sensitivity score (T-47D Tam2 [13])	drug sensitivity score (ZR-75-1 Tam1 [14])	drug sensitivity score (MCF-7 Tam1 [15])	drug sensitivity score (BT-474 [16]; 4-OH-tamoxifen in medium 0 µM)	drug sensitivity score (BT-474 [16]; 4-OH-tamoxifen in medium 1 µM)	viability inhibition at highest dose (ZR-75-1 Tam2 [17])	viability inhibition at highest dose (MCF-7 [18]; 4-OH-tamoxifen in medium 0 µM)	viability inhibition at highest dose (MCF-7 [18]; 4-OH-tamoxifen in medium 1 µM)	viability inhibition at highest dose (BT-474 Tam2 [19])	viability inhibition at highest dose (T-47D [20]; 4-OH-tamoxifen in medium 0 µM)	viability inhibition at highest dose (T-47D [20]; 4-OH-tamoxifen in medium 1 µM)	viability inhibition at highest dose (T-47D Tam1 [21])	viability inhibition at highest dose (ZR-75-1 [22]; 4-OH-tamoxifen in medium 0 µM)	viability inhibition at highest dose (ZR-75-1 [22]; 4-OH-tamoxifen in medium 1 µM)	viability inhibition at highest dose (BT-474 Tam1 [23])	viability inhibition at highest dose (T-47D Tam2 [24])	viability inhibition at highest dose (ZR-75-1 Tam1 [25])	viability inhibition at highest dose (MCF-7 Tam1 [26])	viability inhibition at highest dose (BT-474 [27]; 4-OH-tamoxifen in medium 0 µM)	viability inhibition at highest dose (BT-474 [27]; 4-OH-tamoxifen in medium 1 µM)
CC(=O)c1c(C)c2cnc(Nc3ccc(N4CCNCC4)cn3)nc2n(C2CCCC2)c1=O	1.16	> 10	> 10	> 10	> 10	1.63	3.32	3.28	0	2.46	0	2.49	0	0.745	0	1.34	1.11	0.967	0	0															
COc1cc(OC2CCN(C)CC2)ccc1Nc1ncc2c(n1)n(C1CCCC1)c(=O)n2C [AZ 3146] (drug 10000 nM)																					24	24.5	15	25.9	27.1	14.1	20.1	20.8	22.9	74.5	26.5	19.6	11.7	9.21	77.2
Cc1ccc(C(=O)N(CCCN)[C@@H](c2oc3cc(Cl)ccc3c(=O)c2Cc2ccccc2)C(C)C)cc1 (drug 100 nM)																					-13.3	5.45	19.8	-0.695	-16.7	-5.16	-2.81	-10.8	-9.18	-6.24	7.13	-7.2	-9.67	-10.2	-22.8
Cn1cc(C2=C(c3cn(C4CCN(Cc5ccccn5)CC4)c4ccccc34)C(=O)NC2=O)c2ccccc21 [Enzastaurin] (drug 10000 nM)																					-0.91	-11	-13.8	-1.15	-15.8	-13.2	-9.95	-10.7	-19.1	-11.4	-0.917	1.19	-11.6	-3.38	-20.9
CC[C@@]1(O)C(=O)OCc2c1cc1n(c2=O)Cc2cc3ccccc3nc2-1 [Camptothecin] (drug 5000 nM)																					57.9	85.5	87.2	-15.3	61	28.7	49.6	52.9	41.1	4.82	35.6	54.1	49.1	-9.54	0.861
